Assays:
[1] = molecular target: Receptor-interacting serine/threonine-protein kinase 2 (Homo sapiens) (UniProt O43353); conditions: Compound concentration 100.0 nM
[2] = molecular target: Serine/threonine-protein kinase WNK4 (Homo sapiens) (UniProt Q96J92); conditions: Compound concentration 100.0 nM
[3] = tested on: Leucine-rich repeat serine/threonine-protein kinase 2 (Homo sapiens), Q5S007 [G2019S]; conditions: Compound concentration 100.0 nM
[4] = tested on: Receptor-type tyrosine-protein kinase FLT3 (Homo sapiens), P36888 [D835Y]; conditions: Compound concentration 100.0 nM
[5] = molecular target: Tyrosine-protein kinase ABL2 (Homo sapiens) (UniProt P42684); conditions: Compound concentration 100.0 nM
[6] = molecular target: Serine/threonine-protein kinase pim-1 (Homo sapiens) (UniProt P11309); conditions: Compound concentration 100.0 nM
[7] = molecular target: Myosin light chain kinase 2, skeletal/cardiac muscle (Homo sapiens) (UniProt Q9H1R3); conditions: Compound concentration 100.0 nM
[8] = molecular target: MAP kinase-interacting serine/threonine-protein kinase 1 (Homo sapiens) (UniProt Q9BUB5); conditions: Compound concentration 100.0 nM
[9] = molecular target: Serine/threonine-protein kinase tousled-like 1 (Homo sapiens) (UniProt Q9UKI8); conditions: Compound concentration 100.0 nM
[10] = molecular target: Serine/threonine-protein kinase LATS1 (Homo sapiens) (UniProt O95835); conditions: Compound concentration 100.0 nM
[11] = molecular target: Serine/threonine-protein kinase LATS2 (Homo sapiens) (UniProt Q9NRM7); conditions: Compound concentration 100.0 nM
[12] = molecular target: Rho-associated protein kinase 2 (Homo sapiens, UniProt O75116); conditions: Compound concentration 100.0 nM
[13] = molecular target: Serine/threonine-protein kinase TAO2 (Homo sapiens) (UniProt Q9UL54); conditions: Compound concentration 100.0 nM
[14] = molecular target: Death-associated protein kinase 3 (Homo sapiens) (UniProt O43293); conditions: Compound concentration 100.0 nM
[15] = molecular target: Ribosomal protein S6 kinase alpha-2 (Homo sapiens) (UniProt Q15349); conditions: Compound concentration 100.0 nM
[16] = molecular target: Ephrin type-B receptor 1 (Homo sapiens) (UniProt P54762); conditions: Compound concentration 100.0 nM
[17] = molecular target: Megakaryocyte-associated tyrosine-protein kinase (Homo sapiens) (UniProt P42679); conditions: Compound concentration 100.0 nM
[18] = molecular target: Mitogen-activated protein kinase 8 (Homo sapiens) (UniProt P45983); conditions: Compound concentration 100.0 nM
[19] = molecular target: RAC-gamma serine/threonine-protein kinase (Homo sapiens) (UniProt Q9Y243); conditions: Compound concentration 100.0 nM
[20] = molecular target: Serine/threonine-protein kinase 32A (Homo sapiens) (UniProt Q8WU08); conditions: Compound concentration 100.0 nM
[21] = molecular target: Tyrosine-protein kinase Lyn (Homo sapiens) (UniProt P07948); conditions: Compound concentration 100.0 nM
[22] = molecular target: G protein-coupled receptor kinase 3 (Homo sapiens) (UniProt P35626); conditions: Compound concentration 100.0 nM
[23] = molecular target: Casein kinase I isoform epsilon (Homo sapiens) (UniProt P49674); conditions: Compound concentration 100.0 nM
[24] = molecular target: cAMP-dependent protein kinase catalytic subunit beta (Homo sapiens) (UniProt P22694); conditions: Compound concentration 100.0 nM
[25] = molecular target: High affinity nerve growth factor receptor (Homo sapiens) (UniProt P04629); conditions: Compound concentration 100.0 nM
[26] = tested on: ALK tyrosine kinase receptor (Homo sapiens), Q9UM73 [C1156Y]; conditions: Compound concentration 100.0 nM
[27] = molecular target: Aurora kinase C (Homo sapiens) (UniProt Q9UQB9); conditions: Compound concentration 100.0 nM
[28] = molecular target: Serine/threonine-protein kinase PLK2 (Homo sapiens) (UniProt Q9NYY3); conditions: Compound concentration 100.0 nM
[29] = molecular target: Phosphatidylinositol 5-phosphate 4-kinase type-2 beta (Homo sapiens) (UniProt P78356); conditions: Compound concentration 100.0 nM
[30] = molecular target: Dual specificity mitogen-activated protein kinase kinase 3 (Homo sapiens) (UniProt P46734); conditions: Compound concentration 100.0 nM
[31] = molecular target: Mitogen-activated protein kinase kinase kinase 5 (Homo sapiens) (UniProt Q99683); conditions: Compound concentration 100.0 nM
[32] = molecular target: T1, Mitogen-activated protein kinase 12 (Homo sapiens) (UniProt P53778); conditions: Compound concentration 100.0 nM
T1 sequence (whole entry): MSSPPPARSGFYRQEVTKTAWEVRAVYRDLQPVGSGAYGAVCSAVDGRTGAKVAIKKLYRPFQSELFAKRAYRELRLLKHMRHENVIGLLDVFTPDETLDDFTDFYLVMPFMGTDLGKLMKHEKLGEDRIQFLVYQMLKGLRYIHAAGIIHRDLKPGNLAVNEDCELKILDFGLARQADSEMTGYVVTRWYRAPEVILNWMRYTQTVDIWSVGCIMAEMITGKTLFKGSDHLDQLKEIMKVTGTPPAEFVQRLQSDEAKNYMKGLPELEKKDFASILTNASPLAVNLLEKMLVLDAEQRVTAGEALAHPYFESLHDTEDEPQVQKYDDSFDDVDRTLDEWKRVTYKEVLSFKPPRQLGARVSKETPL

[33] = molecular target: Dual specificity mitogen-activated protein kinase kinase 1 (Homo sapiens) (UniProt Q02750); conditions: Compound concentration 100.0 nM
[34] = molecular target: Ribosomal protein S6 kinase beta-1 (Homo sapiens) (UniProt P23443); conditions: Compound concentration 100.0 nM
[35] = molecular target: 5-hydroxytryptamine receptor 3A (Homo sapiens) (UniProt P46098); conditions: Compound concentration 10.0 uM
[36] = molecular target: Phosphorylase b kinase regulatory subunit alpha, liver isoform (Homo sapiens) (UniProt P46019); conditions: Compound concentration 100.0 nM
[37] = molecular target: Tyrosine-protein kinase FRK (Homo sapiens) (UniProt P42685); conditions: Compound concentration 100.0 nM
[38] = molecular target: Alpha-1B adrenergic receptor (Homo sapiens) (UniProt P35368); conditions: Compound concentration 10.0 uM
[39] = molecular target: Platelet-derived growth factor receptor beta (Homo sapiens) (UniProt P09619); conditions: Compound concentration 100.0 nM
[40] = molecular target: Serine/threonine-protein kinase WNK2 (Homo sapiens) (UniProt Q9Y3S1); conditions: Compound concentration 100.0 nM

Death-associated protein kinase 3 (Homo sapiens), sequence (O43293 whole entry, looked up): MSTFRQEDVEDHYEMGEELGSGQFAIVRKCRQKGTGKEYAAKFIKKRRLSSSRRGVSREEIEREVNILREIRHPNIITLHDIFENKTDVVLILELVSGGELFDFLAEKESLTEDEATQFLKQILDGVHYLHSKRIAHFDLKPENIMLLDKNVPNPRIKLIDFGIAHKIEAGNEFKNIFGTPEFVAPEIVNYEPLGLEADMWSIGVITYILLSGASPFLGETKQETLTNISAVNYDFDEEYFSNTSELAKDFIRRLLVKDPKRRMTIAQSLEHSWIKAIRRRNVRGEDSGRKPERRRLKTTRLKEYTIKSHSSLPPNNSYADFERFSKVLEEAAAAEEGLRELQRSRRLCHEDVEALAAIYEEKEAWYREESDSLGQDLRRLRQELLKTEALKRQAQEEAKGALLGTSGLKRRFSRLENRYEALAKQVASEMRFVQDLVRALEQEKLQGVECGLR
Dual specificity mitogen-activated protein kinase kinase 3 (Homo sapiens), sequence (P46734 whole entry): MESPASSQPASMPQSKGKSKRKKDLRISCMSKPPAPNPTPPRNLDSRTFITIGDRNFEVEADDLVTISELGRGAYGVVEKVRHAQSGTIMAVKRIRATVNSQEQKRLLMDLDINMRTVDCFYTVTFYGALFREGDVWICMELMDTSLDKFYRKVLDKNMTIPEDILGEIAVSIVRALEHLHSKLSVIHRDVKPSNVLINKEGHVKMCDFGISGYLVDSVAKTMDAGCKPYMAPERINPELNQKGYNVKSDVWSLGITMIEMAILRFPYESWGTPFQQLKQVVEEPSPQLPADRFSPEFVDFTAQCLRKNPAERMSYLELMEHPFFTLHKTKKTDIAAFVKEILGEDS
Leucine-rich repeat serine/threonine-protein kinase 2 (Homo sapiens), Q5S007 [G2019S], sequence (Q5S007 whole entry G2019S): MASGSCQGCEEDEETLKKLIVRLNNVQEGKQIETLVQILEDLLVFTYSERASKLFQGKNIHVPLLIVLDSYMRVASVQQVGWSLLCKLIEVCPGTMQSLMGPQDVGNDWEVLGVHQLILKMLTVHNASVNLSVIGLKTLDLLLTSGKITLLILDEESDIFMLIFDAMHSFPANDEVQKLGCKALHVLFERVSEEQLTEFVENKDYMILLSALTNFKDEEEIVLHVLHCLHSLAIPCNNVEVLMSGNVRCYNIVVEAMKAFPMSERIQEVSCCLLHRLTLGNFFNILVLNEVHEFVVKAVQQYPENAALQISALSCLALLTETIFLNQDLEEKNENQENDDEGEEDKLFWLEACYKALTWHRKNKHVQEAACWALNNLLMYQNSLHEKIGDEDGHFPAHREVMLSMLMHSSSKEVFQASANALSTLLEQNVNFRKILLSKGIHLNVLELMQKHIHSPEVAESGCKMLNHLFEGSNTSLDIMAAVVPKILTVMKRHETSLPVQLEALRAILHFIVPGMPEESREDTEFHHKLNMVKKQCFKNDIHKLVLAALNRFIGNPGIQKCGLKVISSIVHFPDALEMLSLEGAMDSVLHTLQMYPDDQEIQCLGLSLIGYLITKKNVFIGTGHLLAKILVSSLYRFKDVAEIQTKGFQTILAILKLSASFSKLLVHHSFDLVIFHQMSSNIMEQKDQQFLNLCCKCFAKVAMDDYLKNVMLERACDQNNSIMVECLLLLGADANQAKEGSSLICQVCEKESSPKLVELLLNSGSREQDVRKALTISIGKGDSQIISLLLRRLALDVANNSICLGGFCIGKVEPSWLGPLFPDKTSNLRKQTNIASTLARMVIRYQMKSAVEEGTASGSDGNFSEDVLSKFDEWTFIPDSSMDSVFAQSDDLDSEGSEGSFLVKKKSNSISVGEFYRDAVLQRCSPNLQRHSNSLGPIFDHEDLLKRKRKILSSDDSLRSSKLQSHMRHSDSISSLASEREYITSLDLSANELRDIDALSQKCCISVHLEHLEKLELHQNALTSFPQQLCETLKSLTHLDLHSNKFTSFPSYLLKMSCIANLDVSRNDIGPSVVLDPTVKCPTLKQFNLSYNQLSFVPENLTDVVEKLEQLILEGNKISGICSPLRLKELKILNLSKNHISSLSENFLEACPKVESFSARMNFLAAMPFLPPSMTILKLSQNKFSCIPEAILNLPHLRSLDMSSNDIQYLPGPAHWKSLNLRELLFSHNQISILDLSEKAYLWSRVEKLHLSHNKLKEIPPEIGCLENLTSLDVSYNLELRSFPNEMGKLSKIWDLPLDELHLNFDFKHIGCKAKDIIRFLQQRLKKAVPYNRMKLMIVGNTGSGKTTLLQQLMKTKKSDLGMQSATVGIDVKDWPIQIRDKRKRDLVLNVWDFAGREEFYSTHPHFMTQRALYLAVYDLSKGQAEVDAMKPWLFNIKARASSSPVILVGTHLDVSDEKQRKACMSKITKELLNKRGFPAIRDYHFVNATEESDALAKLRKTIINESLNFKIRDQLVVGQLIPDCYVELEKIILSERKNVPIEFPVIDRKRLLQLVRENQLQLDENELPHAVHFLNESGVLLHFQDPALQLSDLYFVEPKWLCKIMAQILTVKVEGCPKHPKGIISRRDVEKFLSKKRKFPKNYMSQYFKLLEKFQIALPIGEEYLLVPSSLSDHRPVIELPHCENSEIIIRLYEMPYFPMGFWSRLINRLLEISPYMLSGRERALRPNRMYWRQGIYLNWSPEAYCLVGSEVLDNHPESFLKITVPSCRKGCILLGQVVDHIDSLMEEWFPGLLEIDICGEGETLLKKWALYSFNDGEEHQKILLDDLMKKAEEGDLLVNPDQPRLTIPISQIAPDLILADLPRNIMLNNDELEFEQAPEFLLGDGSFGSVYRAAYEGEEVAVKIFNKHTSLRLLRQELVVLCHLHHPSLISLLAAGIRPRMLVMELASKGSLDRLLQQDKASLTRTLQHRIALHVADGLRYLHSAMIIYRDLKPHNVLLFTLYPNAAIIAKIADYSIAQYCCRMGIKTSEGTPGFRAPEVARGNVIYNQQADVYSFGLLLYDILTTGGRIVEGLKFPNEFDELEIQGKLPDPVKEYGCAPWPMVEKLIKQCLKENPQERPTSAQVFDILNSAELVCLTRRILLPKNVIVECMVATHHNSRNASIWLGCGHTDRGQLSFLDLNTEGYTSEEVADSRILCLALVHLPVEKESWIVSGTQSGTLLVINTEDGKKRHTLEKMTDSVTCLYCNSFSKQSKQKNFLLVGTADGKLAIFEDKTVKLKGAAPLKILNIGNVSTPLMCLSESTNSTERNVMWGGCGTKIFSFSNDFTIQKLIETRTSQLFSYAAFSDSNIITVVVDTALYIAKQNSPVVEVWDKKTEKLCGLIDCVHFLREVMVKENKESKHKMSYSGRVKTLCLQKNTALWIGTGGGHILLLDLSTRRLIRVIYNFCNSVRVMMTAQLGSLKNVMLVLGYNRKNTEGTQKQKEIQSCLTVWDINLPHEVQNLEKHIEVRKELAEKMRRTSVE
Megakaryocyte-associated tyrosine-protein kinase (Homo sapiens), sequence (P42679 whole entry): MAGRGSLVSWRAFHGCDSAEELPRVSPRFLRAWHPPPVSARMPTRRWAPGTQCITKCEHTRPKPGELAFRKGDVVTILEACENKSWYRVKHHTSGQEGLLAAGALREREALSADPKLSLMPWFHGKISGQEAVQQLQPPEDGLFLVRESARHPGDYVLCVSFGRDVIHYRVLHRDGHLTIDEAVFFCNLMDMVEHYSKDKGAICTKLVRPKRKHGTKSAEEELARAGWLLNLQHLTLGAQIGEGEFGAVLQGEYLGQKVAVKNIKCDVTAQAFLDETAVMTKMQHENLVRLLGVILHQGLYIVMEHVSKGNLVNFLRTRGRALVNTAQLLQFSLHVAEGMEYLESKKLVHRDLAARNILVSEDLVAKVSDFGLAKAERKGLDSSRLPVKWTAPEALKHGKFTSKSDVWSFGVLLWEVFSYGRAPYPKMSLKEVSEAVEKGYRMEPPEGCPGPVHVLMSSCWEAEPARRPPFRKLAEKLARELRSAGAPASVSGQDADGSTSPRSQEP
Serine/threonine-protein kinase tousled-like 1 (Homo sapiens), sequence (Q9UKI8 whole entry): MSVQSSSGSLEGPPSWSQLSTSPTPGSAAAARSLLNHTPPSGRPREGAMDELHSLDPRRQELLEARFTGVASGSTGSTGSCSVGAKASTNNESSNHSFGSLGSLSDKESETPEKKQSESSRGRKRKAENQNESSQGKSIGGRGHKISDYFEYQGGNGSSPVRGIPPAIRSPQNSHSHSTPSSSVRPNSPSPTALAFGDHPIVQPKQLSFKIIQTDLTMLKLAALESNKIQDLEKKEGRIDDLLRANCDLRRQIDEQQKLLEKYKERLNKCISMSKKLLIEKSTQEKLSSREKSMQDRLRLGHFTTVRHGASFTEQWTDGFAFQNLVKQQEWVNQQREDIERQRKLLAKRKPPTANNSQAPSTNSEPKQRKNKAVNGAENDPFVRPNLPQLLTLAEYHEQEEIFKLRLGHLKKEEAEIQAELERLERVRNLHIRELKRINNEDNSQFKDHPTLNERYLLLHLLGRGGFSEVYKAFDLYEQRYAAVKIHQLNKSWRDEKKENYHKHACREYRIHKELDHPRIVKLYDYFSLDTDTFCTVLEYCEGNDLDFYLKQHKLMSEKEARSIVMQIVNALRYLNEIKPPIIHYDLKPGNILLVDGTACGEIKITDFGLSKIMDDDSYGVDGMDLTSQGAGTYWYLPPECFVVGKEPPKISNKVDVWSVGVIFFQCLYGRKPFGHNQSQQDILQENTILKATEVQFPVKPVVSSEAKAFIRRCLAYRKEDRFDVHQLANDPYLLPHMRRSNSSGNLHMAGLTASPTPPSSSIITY
Mitogen-activated protein kinase 8 (Homo sapiens), sequence (P45983 whole entry): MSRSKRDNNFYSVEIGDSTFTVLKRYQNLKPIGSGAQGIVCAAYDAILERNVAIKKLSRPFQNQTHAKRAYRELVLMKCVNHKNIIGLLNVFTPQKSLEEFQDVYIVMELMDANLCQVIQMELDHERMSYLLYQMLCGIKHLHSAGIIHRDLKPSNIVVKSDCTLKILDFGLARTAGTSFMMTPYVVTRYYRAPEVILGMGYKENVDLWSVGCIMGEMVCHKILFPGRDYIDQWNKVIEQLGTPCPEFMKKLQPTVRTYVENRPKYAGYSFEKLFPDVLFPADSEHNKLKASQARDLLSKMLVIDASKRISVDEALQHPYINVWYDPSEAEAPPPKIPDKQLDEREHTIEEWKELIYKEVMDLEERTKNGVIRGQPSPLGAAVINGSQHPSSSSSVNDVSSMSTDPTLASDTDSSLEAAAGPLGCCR

| SMILES | residual activity [1] | residual activity [2] | residual activity [3] | residual activity [4] | residual activity [5] | residual activity [6] | residual activity [7] | residual activity [8] | residual activity [9] | residual activity [10] | residual activity [11] | residual activity [12] | residual activity [13] | residual activity [14] | residual activity [15] | residual activity [16] | residual activity [17] | residual activity [18] | residual activity [19] | residual activity [20] | also measured |
| --- | --- | --- | --- | --- | --- | --- | --- | --- | --- | --- | --- | --- | --- | --- | --- | --- | --- | --- | --- | --- | --- |
| Cn1cc(Cl)c2c(Oc3c(F)cc(Nc4cc(Cl)nc(N)n4)cc3F)ccnc21 [BAY-4900] | 83% | 100% | 100% | 99% | 99% | 100% | 99% | 100% | 100% | 69% | 91% | 83% | 100% | 100% | 95% | 96% | 97% | 76% | 98% | 89% | residual activity [21]: 99%; residual activity [22]: 83%; residual activity [23]: 98%; residual activity [24]: 92%; residual activity [25]: 74%; residual activity [26]: 100%; residual activity [27]: 97%; residual activity [28]: 83%; residual activity [29]: 76%; residual activity [30]: 94%; residual activity [31]: 97%; residual activity [32]: 100%; residual activity [33]: 90%; residual activity [34]: 84%; inhibition [35]: 4.46%; residual activity [36]: 100%; residual activity [37]: 81%; inhibition [38]: 18.3%; residual activity [39]: 96%; residual activity [40]: 88% |
| Cc1c[nH]c2nccc(Oc3c(F)cc(Nc4cc(Cl)nc(N)n4)cc3F)c12 [BAY-549] | 92% | 100% | 100% | 63% | 86% | 100% | 98% | 100% | 100% | 42% | 0.7% | 0.9% | 100% | 97% | 82% | 86% | 88% | 80% | 78% | 86% | residual activity [21]: 81%; residual activity [22]: 78%; residual activity [23]: 64%; residual activity [24]: 36%; residual activity [25]: 81%; residual activity [26]: 100%; residual activity [27]: 72%; residual activity [28]: 59%; residual activity [29]: 90%; residual activity [30]: 100%; residual activity [31]: 98%; residual activity [32]: 100%; residual activity [33]: 81%; residual activity [34]: 85%; inhibition [35]: 0.5%; residual activity [36]: 89%; residual activity [37]: 100%; inhibition [38]: 17%; residual activity [39]: 83%; residual activity [40]: 96% |

— ChEMBL document CHEMBL4507274 (2021)
